Source: patent US12023408B2, “Amorphous efinaconazole solid dispersion” (DAEBONG LS CO., LTD., priority 2019, dated 2024)

Experiment: Test for the content of related substances (stability in solution, HPLC)
Assay type: physicochemical
Conditions: dissolved in a solution
Procedure: Experimental Example 1—Test for the Content of Related Substances […] Thereafter, the contents of related substances were measured by high-performance liquid chromatography (HPLC). The same procedure was repeated except that crystalline efinaconazole was used instead of the solid dispersion.

C=C1CCN([C@H](C)[C@](O)(Cn2cncn2)c2ccc(F)cc2F)CC1 [Efinaconazole, (2R,3R)-2-(2,4-difluorophenyl)-3-(4-methylenepiperidin-1-yl)-1-(1H-1,2,4-triazol-1-yl)butan-2-ol]
content of related substances (oven at 65° C., 0 (initial)): 0 | content of related substances (oven at 65° C., 1 week): 0.45% | content of related substances (oven at 65° C., 2 weeks): 0.54% | content of related substances (oven at 65° C., 4 weeks): 1.53% | content of related substances (room temperature, 0 (initial)): 0 | content of related substances (room temperature, 1 week): 0.27% | content of related substances (room temperature, 2 weeks): 0.39% | content of related substances (room temperature, 4 weeks): 0.40%
